This note sets out measurements from PubChem BioAssay AID720587 (Broad Institute, 2013).

Structures are written as SMILES. Calls of active or inactive are those of the source.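 Rule for the calls: active = fitted curve reaches -35% activity change at a concentration below twice the top valid dose tested; inactive = the rest, including effects opposite to the expected direction.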

Test system in the first test: not listed separately
Put plainly: EWS/Fli1-dependent A673 cell killing, confirmation, CellTiter-Glo luminescence, cherry-pick retest (AID 720587). The conditions noted are these: A673 Ewing sarcoma viability, CellTiter-Glo ATP luminescence, 72 h; at 23.5 µM (top of the series).
As to `COc1ccccc1NC(=O)N1[C@@H]2CNC[C@H]1[C@@H]2c1ccc(-c2ccc(C#N)cc2)cc1`, the activity change, negative = cytotoxicity was 13.3% (inactive).

Staying with this test, now noted: A673 Ewing sarcoma viability, CellTiter-Glo ATP luminescence, 72 h; at 26 µM (top of the series).
`CCCn1nnc(NC(=S)NC(=O)C(C)(C)C)n1`: the activity change, negative = cytotoxicity is -3.83% (inactive).
Take `C[C@H](CO)N1C[C@H](C)[C@H](CN(C)Cc2ccc(C(F)(F)F)cc2)Oc2c(NS(=O)(=O)c3ccc(Cl)cc3)cccc2C1=O`: the activity change, negative = cytotoxicity is 4.37% (inactive).
Take `COc1ccc(Nc2oc(COc3ccccc3OC)nc2C#N)cc1`: the activity change, negative = cytotoxicity was 2.48% (inactive).
Same read-out and setting: the result for `O=C(/C=C/c1ccc(Cl)cc1Cl)N(Cc1ccc(Cl)cc1)C1CCS(=O)(=O)C1` (centres undefined) reads 2.8% (inactive); that for `CC(C)(C)c1ccc(/C=N/Nc2ccc(C(=O)O)cc2)cc1`, -3.68% (inactive); that for `Cc1cc2sc3ccc(C#CC4(O)CCCCC4)cc3c(=O)c2cc1C`, -2.73% (inactive).
Regarding `Cc1cc(-c2nc3cc(F)ccc3s2)ccc1N`, the activity change, negative = cytotoxicity is -13.6% (inactive).
Take `COc1cc(/C=N/NC(=O)c2csc3c2CCCC3)cc(OC)c1O`: the activity change, negative = cytotoxicity was 0.143% (inactive).
For the molecule `O=C(O)c1ccc(N/N=C/c2ccc(OC(=O)c3cccc(Cl)c3)cc2)cc1`, the activity change, negative = cytotoxicity is -8.45% (inactive).
Turning to `C/C=C/c1ccc(C2[C@@H]3CN(C(=O)Cc4ccccc4)C[C@H]2N3)cc1` (some centres undefined), the activity change, negative = cytotoxicity is -1.54% (inactive).
`O=C(CN1C(=O)C(=O)c2ccccc21)c1ccc(Cl)cc1`: the activity change, negative = cytotoxicity is -6.17% (inactive).
As for `Nc1ccc(-c2cc3ccccc3oc2=O)cc1`, the activity change, negative = cytotoxicity is 3.89% (inactive).
As to `COc1ccccc1/C=C1\SC(=S)N(CCC(=O)Nc2cc(C)on2)C1=O`, the activity change, negative = cytotoxicity was 6.59% (inactive).
Take `OCCN1CCN(C(=S)c2ccc(-c3ccccc3)cc2)CC1`: the activity change, negative = cytotoxicity is 6.18% (inactive).
For `Cc1cc(C(=O)CN2C(=O)c3ccccc3S2(=O)=O)c(C)n1C(C)C`, the activity change, negative = cytotoxicity was 21.4% (inactive).
Take `COC(=O)C[C@@H]1CC[C@@H]2[C@H](COc3ccc(NC(=O)c4cc(F)cc(F)c4)cc3C(=O)N2C)O1`: the activity change, negative = cytotoxicity is -0.378% (inactive).
For the molecule `O=C(Nc1nc(-c2ccc(F)c(F)c2)cs1)c1ccc(OCC2CCCO2)cc1` (centres undefined), the activity change, negative = cytotoxicity was 5.7% (inactive).
In the case of `COCc1cc(C)nc2sc(C(=O)NCCO)c(-n3cccc3)c12`, the activity change, negative = cytotoxicity was 13.2% (inactive).
In the case of `CC(C)NC(=O)N(C)C[C@@H]1Oc2cc(C#Cc3ccc(F)cc3)ccc2S(=O)(=O)N([C@H](C)CO)C[C@H]1C`, the activity change, negative = cytotoxicity was -18.2% (inactive).
In the case of `COC(=O)c1c(C)[nH]c(/C=N/Nc2ccccc2)c1C`, the activity change, negative = cytotoxicity is 5.78% (inactive).
As to `COC(=O)C[C@@H]1CC[C@@H]2[C@@H](COc3ccc(NC(=O)Cc4cccs4)cc3C(=O)N2C)O1`, the activity change, negative = cytotoxicity is -23.4% (inactive).
Same read-out and setting: the result for `CCC(C)Cn1c(O)cc2nn(-c3nc4ccccc4s3)c(=O)c-2c1C` (centres undefined) reads -13.1% (inactive); that for `C[C@@H]1CN([C@@H](C)CO)S(=O)(=O)c2ccc(C#Cc3ccncc3)cc2O[C@H]1CN(C)C(=O)C1CCOCC1`, -7.5% (inactive).
Turning to `COc1ccc(C(=O)OCC(=O)Nc2ccc(Cl)c(C(F)(F)F)c2)c(OC)c1OC`, the activity change, negative = cytotoxicity is 2.74% (inactive).
The same measure, in the same setting: the result for `CN(C(=O)COC(=O)c1cc(-c2ccccc2Cl)nc2ccccc12)C1CCS(=O)(=O)C1` (centres undefined) reads -1.76% (inactive).
For the molecule `COc1ccc(/C=C2/SC(=S)N(CCCC(=O)Nc3ccccc3C(=O)O)C2=O)cc1`, the activity change, negative = cytotoxicity was 5.45% (inactive).
Same read-out and setting: the result for `COc1ccc(NC(=O)c2cc3ccccc3oc2=O)cc1` reads -20.8% (inactive).
As for `S=C(NCCN1CCOCC1)Nc1ccccc1Cl`, the activity change, negative = cytotoxicity was 3% (inactive).
As for `C/C(=N\OCc1cccc(C(=O)O)c1)c1ccc(Cl)cc1`, the activity change, negative = cytotoxicity is -3.02% (inactive).
For the molecule `COc1cc(C(c2c(C)[nH][nH]c2=O)c2c(C)[nH][nH]c2=O)ccc1OC(C)C`, the activity change, negative = cytotoxicity is -4.73% (inactive).
`Nc1ccc(-c2cc3ccccc3c(=O)o2)cc1`: the activity change, negative = cytotoxicity is -2.08% (inactive).
In the case of `CCOc1ccc(NC(=O)C(=O)N/N=C\c2ccc(CNS(=O)(=O)c3ccccc3)o2)cc1`, the activity change, negative = cytotoxicity was -1.27% (inactive).
Still for that read-out and setting: the result for `C[C@H]1CN([C@@H](C)CO)C(=O)c2cc(NS(=O)(=O)c3ccc(Cl)cc3)ccc2O[C@H]1CN(C)Cc1ccc(Cl)c(Cl)c1` reads 4.93% (inactive); that for `Nc1ccc2c(c1)OC1(CCCC1)O2`, -14.9% (inactive).
As for `O=C(CCCCl)Nc1nc(-c2ccc3c(c2)OCCO3)cs1`, the activity change, negative = cytotoxicity was 10.2% (inactive).

Another test deals with A673 Ewing sarcoma viability, CellTiter-Glo ATP luminescence, 72 h. The description is as above.
Conditions: not given
As to `C[C@@H]1CN([C@@H](C)CO)C(=O)c2cccc(NC(=O)Nc3cccc4ccccc34)c2O[C@@H]1CN(C)Cc1ccc(C(=O)Nc2ccccc2N)cc1`, the AC35 is 14.8 µM.
Turning to `CCOc1cc(N2CCC(O)CC2)ccc1Nc1ncc2c(n1)N(C)c1ccccc1C(=O)N2C`, the AC35 was 21 µM.
On the same count and under the same terms, the result for `Cc1cccc(/C=C(\c2nc3ccccc3[nH]2)S(=O)(=O)c2ccccc2)c1` reads 5.92 µM.
Same read-out and setting: the result for `O=C(CCCN1C(=O)S/C(=C\c2ccccc2)C1=O)NNC(=O)c1ccccc1O` reads 18.7 µM.
As to `O=C(N/N=C/c1cnc(N2CCCCC2)s1)c1ccc(C(F)(F)F)cc1`, the AC35 is 13.8 µM.
Consider `Cc1ccc(C)c(S(=O)(=O)N2CCN(c3ncnc4sccc34)CC2)c1`, for which the AC35 was 5.35 µM.
Regarding `C[C@H]1CN([C@@H](C)CO)C(=O)Cc2cc(NC(=O)CCCCCC(=O)Nc3ccccc3N)ccc2O[C@H]1CN(C)Cc1ccc(Oc2ccccc2)cc1`, the AC35 was 6.08 µM.
The same measure, in the same setting: the result for `C[C@@H]1CN([C@@H](C)CO)S(=O)(=O)c2ccc(C#CC(C)(C)O)cc2O[C@H]1CN(C)Cc1ccc(-c2ccccc2)cc1` reads 5.75 µM; that for `CC(=NNc1ccc2ccccc2n1)c1ccccc1O`, 13.9 µM.
On the same count and under the same terms, the result for `Nc1nc(N)c2cc(Sc3ccc4ccccc4c3)ccc2n1` reads 3.35 µM; that for `CC(=NNc1ccc2ccccc2n1)c1ccccn1`, 0.234 µM; that for `C[C@]12CCC3C(CCC4=CC(O)CC[C@@]43/C=N/O)C1(O)CCC2C1=CC(=O)OC1` (some centres undefined), 0.569 µM.
`C[C@@H]1CN([C@@H](C)CO)C(=O)c2cc(NS(=O)(=O)c3ccc(F)cc3)ccc2O[C@@H]1CN(C)Cc1ccc(C(=O)Nc2ccccc2N)cc1`: the AC35 was 11.3 µM.
Consider `CCc1ccc(/C=C2\SC(=S)N(CCCC(=O)N3CCN(C)CC3)C2=O)cc1`, for which the AC35 is 13.1 µM.
As for `CCc1ccc2oc(C(=O)N3CCN(c4ccccc4OC)CC3)cc(=O)c2c1`, the AC35 is 14.3 µM.
As to `Cc1ccc(C(C(=O)NCc2ccco2)N(C(=O)CNC(=O)c2cccs2)c2c(C)cc(C)cc2C)cc1` (centres undefined), the AC35 was 14.6 µM.
With `O=C(NC(c1ccc(F)cc1)c1ccc2ccccc2n1)C1CCN(Cc2cccc(C(F)(F)F)c2)CC1` (centres undefined), the AC35 was 14.6 µM.
On the same count and under the same terms, the result for `C[C@@H]1CN([C@H](C)CO)C(=O)Cc2cc(NC(=O)CCCCCC(=O)Nc3ccccc3N)ccc2O[C@@H]1CN(C)CC1CCCCC1` reads 13.4 µM; that for `C=C1C(=O)[C@@]23[C@H](O)C[C@@H]4C(C)(C)CC[C@H](O)[C@@]4(C)[C@@H]2CC[C@@H]1[C@H]3O`, 3.15 µM; that for `COc1ccc(/C=C2\Oc3ccccc3C2=O)cc1`, 22.9 µM.
As to `c1ccc(Nc2nnc(-c3ccc4c(c3)OCO4)o2)cc1`, the AC35 was 11.9 µM.
In the case of `C[C@H](CO)N1C[C@H](C)[C@H](CN(C)CC2CCCCC2)Oc2ccc(NC(=O)CCCCCC(=O)Nc3ccccc3N)cc2CC1=O`, the AC35 was 10.5 µM.
As to `COC(=O)C[C@H]1CC[C@H]2[C@@H](COc3ccc(NC(=O)Nc4cccc(Cl)c4)cc3C(=O)N2C)O1`, the AC35 was 14.7 µM.
With `OC[C@H]1[C@@H](c2ccc(C#CC3CCCC3)cc2)[C@@H]2CN(CCC(F)(F)F)CCCCN12`, the AC35 is 7.53 µM.
Regarding `CN(C)c1ccc(N=Nc2nc3ccccc3n2C)cc1`, the AC35 is 8.63 µM.
Turning to `CCS(=O)(=O)N1Cc2ccccc2CC1C(=O)Nc1nnc(SCc2ccc(C#N)cc2)s1` (centres undefined), the AC35 was 12.5 µM.
Take `OC[C@H]1O[C@@H](n2cnc3c(NCc4ccco4)ncnc32)[C@H](O)[C@@H]1O`: the AC35 was 3.68 µM.
Turning to `Cc1ccccc1NC(=O)C(=Cc1ccc(C(=O)O)cc1)C(=O)Nc1ccccc1C`, the AC35 was 5.97 µM.
With `C[C@H](CO)N1C[C@H](C)[C@H](CN(C)Cc2ccc(Oc3ccccc3)cc2)Oc2ccc(NC(=O)Cn3cnnn3)cc2CC1=O`, the AC35 is 8.16 µM.
In the case of `CCOc1cc(/C=N/Nc2cc(C)nc(-n3nc(C)cc3C)n2)ccc1O`, the AC35 is 1.77 µM.
As to `Cc1cc(C(=O)Nc2ccc3c(c2)C(=O)N(C)[C@@H]2CC[C@H](CC(=O)N[C@H](C)c4ccccc4)O[C@H]2CO3)no1`, the AC35 is 12.9 µM.
With `CN(C[C@H]1N[C@@H](CO)[C@@H]1c1ccc(C2=CCCC2)cc1)C(=O)c1cccc(F)c1`, the AC35 is 1.83 µM.
With `Cc1ccc(S(=O)(=O)Nc2ccc3c(c2)C(=O)N([C@@H](C)CO)C[C@@H](C)[C@H](CN(C)Cc2ccc(C(F)(F)F)cc2)OCCCC[C@H](C)O3)cc1`, the AC35 was 12.1 µM.
For `C[C@@H]1CN([C@@H](C)CO)C(=O)Cc2cc(NC(=O)Nc3ccc(C(F)(F)F)cc3)ccc2O[C@@H]1CN(C)Cc1ccc(C(=O)Nc2ccccc2N)cc1`, the AC35 is 10.9 µM.
In the case of `C[C@@H]1CN([C@@H](C)CO)C(=O)c2cc(NC(=O)c3ccccc3)ccc2O[C@@H](C)CCCCO[C@H]1CN(C)C(=O)Nc1cccc2ccccc12`, the AC35 is 0.62 µM.
The same measure, in the same setting: the result for `CCCCCCCCn1c2c(c(=N)c3c1CCC3)CCCC2` reads 5.07 µM.
Regarding `COc1ccc(C2=NNC(=Nc3cc(S(=O)(=O)N(C)C)ccc3C)SC2)c(OC)c1`, the AC35 was 20.5 µM.
With `CCOc1ccc(N=C2C(=O)Nc3ccc(C)c(Br)c32)cc1`, the AC35 is 20.7 µM.
